{"source": "patent US8741882B2", "about": "“Anti-diabetic compounds” (Sen Capital, LLC., priority 2012, dated 2014)", "key": {"ICR mouse": {"system": "ICR mouse", "test": "Animal test: blood glucose after oral glucose load in mice dosed by oral gavage", "type": "in vivo", "conditions": "for response versus vehicle control (negative group), p<0.05 / Means at 20 min. (mean value of glucose level at 20 min. minus glucose level at time zero, before glucose dosing) / blood glucose level as compared with the Vehicle group during the test period (FIG. 5): ICR mouse; for response versus vehicle control (negative group), p<0.05: Metformin Hydrochloride 150 mg/kg, Compound 2 525 and 1050 mg/kg; for Means at 20 min. (mean value of glucose level at 20 min. minus glucose level at time zero, before glucose dosing): 1.5 g/kg glucose 30 min after dosing, in mg/dL; for blood glucose level as compared with the Vehicle group during the test period (FIG. 5): oral gavage, doses as in Table 1", "description": "Approximately 7-9-week-old ICR mouse were purchased from BioLASCO Taiwan Co., Ltd (Taipei, Taiwan).\nLinear analysis of the glucose monitoring system: eight concentrations (0, 50, 100, 200, 300, 400, 500, 600 mg/dL) of glucose solution were determined duplicate. The animals were fasted approximately 4 hours before dosing. Then, the animals were administered with the test compounds via oral gavage. After 30 minutes of the test compound dosed, the animals were administered with 1.5 g/kg glucose solution (Concentration: 0.15 g/mL, Dose volume: 10 mL/kg) via oral gavage. The blood glucose was determined before the test compound dosing, before glucose dosing, and after glucose dosing in 5, 15, 20, 25, 30, 40 and 50 minutes.\nThe results were expressed as means and the statistical significance was evaluated by analysis of variance (ANOVA) followed by least significance difference post hoc test. A level of p<0.05 was considered statistically significant."}, "[1]": {"conditions": "following oral administration; cited from earlier work"}}, "note": "Structures can show the parent of a compound that is named as a salt.", "data": [{"smiles": "COC(=O)CC[C@@H](C)[C@H]1CC[C@H]2[C@@H]3[C@H](O)C[C@@H]4C[C@H](OC(=O)NC(=N)NC(=N)N(C)C)CC[C@]4(C)[C@H]3C[C@H](O)[C@]12C", "note": "[Compound 2]", "values": [{"measurement": "response versus vehicle control (negative group), p<0.05", "setting": "ICR mouse", "value": "significantly different"}, {"measurement": "Means at 20 min. (mean value of glucose level at 20 min. minus glucose level at time zero, before glucose dosing)", "setting": "ICR mouse; Test 1, 525 mg/kg oral gavage", "value": 225.8}, {"measurement": "Means at 20 min. (mean value of glucose level at 20 min. minus glucose level at time zero, before glucose dosing)", "setting": "ICR mouse; Test 2, 1050 mg/kg oral gavage", "value": 225.8}, {"measurement": "blood glucose level as compared with the Vehicle group during the test period (FIG. 5)", "setting": "ICR mouse", "value": "lowered"}, {"measurement": "effect on hyperglycemia in terms of efficacy in lowering blood glucose in animals", "setting": "ICR mouse; summary of Example 3", "value": "improved hyperglycemia"}]}, {"smiles": "CN(C)C(=N)N=C(N)N", "note": "[Metformin Hydrochloride]", "values": [{"measurement": "Means at 20 min. (mean value of glucose level at 20 min. minus glucose level at time zero, before glucose dosing)", "setting": "ICR mouse; 150 mg/kg oral gavage", "value": 125.4}, {"measurement": "response versus vehicle control (negative group), p<0.05", "setting": "ICR mouse", "value": "significantly different"}, {"measurement": "blood glucose level as compared with the Vehicle group during the test period (FIG. 5)", "setting": "ICR mouse", "value": "lowered"}]}, {"smiles": "CN(C)C(=N)NC(=N)N", "note": "[Metformin, N,N-dimethylimidodicarbonimidic diamide]", "values": [{"measurement": "absorbed drug eliminated via the renal route within the first 24 hours", "setting": "[1]", "value": "approximately 90%"}, {"measurement": "response versus vehicle control (negative group), p<0.05", "setting": "ICR mouse", "value": "significantly different"}]}]}
